Reference: paper PMC2376925 (British Journal of Cancer, 2003)
Structures can show the parent of a compound that is named as a salt. One block for each molecule: values may come before it.

Key:
[1] = Plasma pharmacokinetics of irinotecan, SN-38, SN-38G and APC (HPLC, noncompartmental); details: for change of AUC when irinotecan administered immediately after epirubicin: Course 1 vs Course 2, paired t-test; for AUC in Course 1 compared to Course 2, higher by: second patient with elevated bilirubin (1.5 times ULN), irinotecan 80 mg m^−2; for SN-38G AUCt: mean ±s.d., dose standardised to 100 mg irinotecan
Method: (§1) Atropine was administered if diarrhoea, abdominal cramping or other symptoms of early cholinergic syndrome occurred within 1 h of receiving irinotecan. […] Dexamethasone and a 5-HT3 antagonist were administered to all patients as standard premedications unless contraindicated.
(§2) Samples were centrifuged immediately at room temperature, and plasma was separated and stored in aliquots at −20°C until analysis.
Irinotecan, SN-38 and APC concentrations were determined using a high-performance liquid chromatography assay. […] The fluorescence detector was operated at an excitation wavelength of 372 nm, irinotecan and APC were monitored at an emission wavelength of 425 nm, while SN-38 and the internal standard were monitored at 535 nm. SN-38 glucuronide (SN-38G) concentrations were estimated as increases in SN-38 concentrations after incubation of plasma samples with β-glucuronidase.
(§3) Pharmacokinetic parameters were determined by noncompartmental methods using WinNonlin (Version 3.0, Pharsight Corp., Mountain View, CA, USA). […] Pharmacokinetic parameters were compared using the paired t-test. A probability of P<0.05 was considered significant. The program S-PLUS for Windows (Version 6) (Insightful Corp., Seattle, WA, USA) was used for statistical analysis.

[2] = cited from earlier work; for AUC when given together with paclitaxel: attributed to vehicle Cremophor EL, ref Yamamoto et al, 1999; for AUC when given together with carboplatin: ref Okamoto et al, 1998
[3] = system: patients with advanced solid tumours; details: triple combination, Day 1 every 3 weeks; normal total serum bilirubin
Method: as §1

[4] = design: method as in Vanhoefer et al, 2001; details: single-agent, weekly or every-3-week regimen; ref Vanhoefer et al, 2001; cited from earlier work
[5] = clinical; details: for half-life: t1/2 (elimination half-life); for half-life / clearance: mean ±s.d.; for clearance: plasma, intravenous, CL (total body clearance)
Method: as §1, §2
Samples were added to C8 solid-phase extraction tubes and extracts were dried on an evaporator. […] The fluorescence detector was set at excitation 480 nm and emission 560 nm.
as §3

[6] = human, plasma, intravenous, 100 mg

Compound: CCc1c2c(nc3ccc(OC(=O)N4CCC(N5CCCCC5)CC4)cc13)-c1cc3c(c(=O)n1C2)COC(=O)[C@]3(O)CC [irinotecan, Irinotecan hydrochloride]
- AUC(0-inf) [1, 6]: 2960 ± 1020 ng·h/mL
- AUC(0-t) [1, 6]: 2870 ± 916 ng·h/mL
- AUC when given together with paclitaxel [2]: increased
- share of irinotecan and its metabolites excreted via the biliary tract [2]: Over 60%
- doses up to which pharmacokinetics is linear ([2]; ref Mathijssen et al, 2001): up to 180 mg m^−2
- AUC when given together with carboplatin [2]: lower
- share of the administered irinotecan dose converted to SN-38 ([2]; ref Slatter et al, 2000): less than 10%
- recommended phase II dose (MTD) [3]: 110 mg m^−2
- frequency of grade 3/4 late diarrhoea [4]: > 20%

Compound: CCc1c2c(nc3ccc(OC(=O)N4CCC(NCCCCC(=O)O)CC4)cc13)-c1cc3c(c(=O)n1C2)COC(=O)[C@]3(O)CC [APC]
- change of AUC when irinotecan administered immediately after epirubicin [1]: increased significantly
- APC AUCt ([1]; human, in vivo, 100 mg): 725 ± 460 ng·h/mL
- AUC in Course 1 compared to Course 2, higher by [1]: > 60%

- Epi-ol AUCt ([5]; human, in vivo, 100 mg): 788 ± 482 ng·h/mL
Compound: COc1cccc2c1C(=O)c1c(O)c3c(c(O)c1C2=O)C[C@@](O)([C@@H](O)CO)C[C@@H]3O[C@H]1C[C@H](N)[C@@H](O)[C@H](C)O1 [Epi-ol, epirubicinol]

Compound: CCc1c2c(nc3ccc(O)cc13)-c1cc3c(c(=O)n1C2)COC(=O)[C@]3(O)CC [SN-38]
- SN-38 AUCt ([1]; human, in vivo): 102 ± 54 ng·h/mL
- SN-38 AUCt ([1]; human, in vivo, 100 mg): 78 ± 36 ng·h/mL
- AUC when given together with paclitaxel [2]: increased
- AUC when irinotecan is coadministered with doxorubicin ([2]; ref Dunphy et al, 2001): not increased
- AUC when given together with carboplatin [2]: lower

Compound: CCc1c2c(nc3ccc(O[C@@H]4O[C@H](C(=O)O)[C@@H](O)[C@H](O)[C@H]4O)cc13)-c1cc3c(c(=O)n1C2)COC(=O)[C@]3(O)CC [SN-38G, SN-38 glucuronide]
- change of AUC when irinotecan administered immediately after epirubicin [1]: increased significantly
- SN-38G AUCt ([1]; Irinotecan → epirubicin (Course 2)): 378 ± 223 ng·h/mL
- SN-38G AUCt ([1]; Irinotecan+epirubicin (Course 1)): 558 ± 480 ng·h/mL
- AUC in Course 1 compared to Course 2, higher by [1]: > 60%

Compound: COc1cccc2c1C(=O)c1c(O)c3c(c(O)c1C2=O)C[C@@](O)(C(=O)CO)C[C@@H]3O[C@H]1C[C@H](N)[C@@H](O)[C@H](C)O1 [epirubicin]
- Vd (apparent volume of distribution) ([5]; human, in vivo): 2563 ± 1122 L
- AUC(0-inf) ([5]; human, in vivo, 100 mg): 910 ± 368 ng·h/mL
- AUC(0-t) ([5]; human, in vivo, 100 mg): 723 ± 296 ng·h/mL
- Vd ([5]; human, in vivo, Vd (apparent volume of distribution)): 3480 ± 1940 L
- half-life ([5]; human, in vivo, Irinotecan → epirubicin (Course 2)): 16 ± 7.8 h
- half-life ([5]; human, in vivo, Irinotecan+epirubicin (Course 1)): 23.1 ± 10.8 h
- clearance ([5]; human, Irinotecan → epirubicin (Course 2)): 2080 mL/min
- clearance ([5]; human, Irinotecan+epirubicin (Course 1)): 1830 mL/min
- effect of sequence of drug administration on pharmacokinetic parameters ([5]; in vivo): not affected by the sequence of drug administration
